One experiment addresses CDK9/Cyclin T1 (Homo sapiens, UniProt P50750). In words: CDK9 Enzymatic Activity Assay (Lance Kinase Activity Assay, FRET). It is filed as biochemical. Particulars: Table 5B, class symbols per IC50 [nM] ranges of b581; read-out: CDK9: Selectivity of CDK7 inhibition over CDK9 inhibition. As to the method: (§1) This protocol describes how the Lance Kinase Activity Assay was performed to determine IC50 values of compounds of general formula (I) against CDK/Cyclin complexes. The principle behind this enzymatic assay is based upon the phosphorylation of the Ulight-Peptide Substrat. It is detected by using a specific EU-labeled anti-phospho peptide antibody.
(§2) Binding of an inhibitor to the kinase prevents phosphorylation of the Ulight-MBP Substrat, resulting in a loss of FRET.
CDK9 Enzymatic Activity Assay
(§3) The compounds of general formula (I) exemplary summarized in Table 1 were diluted from a 10 mM DMSO stock solution 1:10 in a total volume of 15 μl DMSO. This compound predilution was then serial diluted 1:3 over 8 steps in DMSO and briefly spun down. Each compound solution was now diluted 1:20 in Enzymatic Buffer (HEPES: 50 mM, pH: 7.5; MgCl2: 10 mM; EGTA: 1 mM; DTT: 2 mM; Tween-20: 0.01%), mixed thoroughly and spun down.
(§4) For positive controls, 2 μl of DMSO working solution were mixed with 6 μl CDK9/cyclin T1/substrate working solution and 2 μl ATP working solution. Positive and negative controls were calculated from at least 8 different wells. The 384 well plates were mixed in a Teleshaker plate mixer (Beckman Coulter, Brea, Calif., USA) at 2000 rpm for 40 sec, and incubated for 1 h at room temperature before addition of 10 μl LANCE Detection Buffer (1×; EDTA: […]; Eu-Anti-P-MBP: 4 nM) per well. Plates were mixed in a Teleshaker plate mixer (Beckman Coulter, Brea, Calif., USA) at 2000 rpm for 40 sec, followed by incubation with Detection Buffer for 1 h, and reading. […] IC50 values were determined from the sigmoidal dose response curves with the software Quattro Workflow (Quattro GmbH, Munich, Germany).

The target of another experiment is CDK7/CycH/Mat1 (Homo sapiens, UniProt P50613). Briefly: CDK7 Enzymatic Activity Assay (Lance Kinase Activity Assay, FRET). Conditions: CDK7/CycH/Mat1, 25 μM ATP final; class ranges; read-out: CDK7: IC50 [nM] for CDK7 inhibition. The class given is biochemical. On the procedure: as §1, §2
Chain of CDK7/CycH/Mat1 (P50613 whole entry): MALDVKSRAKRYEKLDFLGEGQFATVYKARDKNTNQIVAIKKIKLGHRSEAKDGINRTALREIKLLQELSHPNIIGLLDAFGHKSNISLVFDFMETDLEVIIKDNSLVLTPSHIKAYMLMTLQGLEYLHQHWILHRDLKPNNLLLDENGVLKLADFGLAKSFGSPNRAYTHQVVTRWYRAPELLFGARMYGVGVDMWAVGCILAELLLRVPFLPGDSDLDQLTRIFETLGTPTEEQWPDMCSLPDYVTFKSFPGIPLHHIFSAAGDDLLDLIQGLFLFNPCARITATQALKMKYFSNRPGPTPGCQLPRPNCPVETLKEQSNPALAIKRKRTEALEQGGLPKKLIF
CDK7 Enzymatic Activity Assay
as §3
as §4, with “CDK7/CycH/Mat1/substrate” for “CDK9/cyclin T1/substrate”

Consider 21 compounds from patent US9567345B2, “Pharmaceutically active pyrazolo-triazine derivatives” (LEAD DISCOVERY CENTER GMBH, priority 2012, dated 2017).

The structures appear in SMILES notation.

Chain of CDK9/Cyclin T1 (P50750 whole entry): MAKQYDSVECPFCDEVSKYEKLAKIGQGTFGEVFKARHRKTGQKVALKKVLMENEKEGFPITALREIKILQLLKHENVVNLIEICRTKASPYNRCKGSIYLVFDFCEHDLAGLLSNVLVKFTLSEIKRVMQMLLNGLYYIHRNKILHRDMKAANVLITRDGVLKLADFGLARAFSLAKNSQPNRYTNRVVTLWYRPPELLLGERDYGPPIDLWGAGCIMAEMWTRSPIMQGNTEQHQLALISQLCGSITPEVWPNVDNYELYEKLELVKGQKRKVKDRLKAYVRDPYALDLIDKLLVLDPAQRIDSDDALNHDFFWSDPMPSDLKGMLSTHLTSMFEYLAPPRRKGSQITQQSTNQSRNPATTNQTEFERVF
Chain of CDK9/Cyclin T1 (O60563 whole entry partner): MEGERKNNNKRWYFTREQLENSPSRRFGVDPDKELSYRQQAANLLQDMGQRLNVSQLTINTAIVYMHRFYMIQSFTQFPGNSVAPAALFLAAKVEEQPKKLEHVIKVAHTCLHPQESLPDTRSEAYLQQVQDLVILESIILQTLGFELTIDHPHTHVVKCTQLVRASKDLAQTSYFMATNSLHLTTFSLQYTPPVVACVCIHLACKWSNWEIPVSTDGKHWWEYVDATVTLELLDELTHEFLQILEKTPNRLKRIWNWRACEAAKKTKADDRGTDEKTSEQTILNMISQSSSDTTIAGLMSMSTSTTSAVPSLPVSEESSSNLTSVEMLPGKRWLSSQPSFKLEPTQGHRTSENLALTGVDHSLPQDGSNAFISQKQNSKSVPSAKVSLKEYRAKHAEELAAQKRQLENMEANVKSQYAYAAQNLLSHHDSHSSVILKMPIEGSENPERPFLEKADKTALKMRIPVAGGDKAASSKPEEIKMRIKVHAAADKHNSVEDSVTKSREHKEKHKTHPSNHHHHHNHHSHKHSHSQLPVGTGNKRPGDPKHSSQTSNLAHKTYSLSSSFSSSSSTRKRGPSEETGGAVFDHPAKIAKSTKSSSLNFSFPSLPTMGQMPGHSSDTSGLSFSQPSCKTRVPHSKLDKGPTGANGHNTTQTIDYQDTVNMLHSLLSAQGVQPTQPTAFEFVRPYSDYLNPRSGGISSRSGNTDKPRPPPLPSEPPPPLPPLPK

With `CC(C)c1cnn2c(NCc3ccccc3-n3ccnc3)nc(OC3CCNCC3)nc12` [(VII-19), N-(2-(1H-imidazol-1-yl)benzyl)-8-isopropyl-2-(piperidin-4-yloxy)pyrazolo[1,5-a][1,3,5]triazin-4-amine], the IC50 was 500 to 2500 nM on CDK9/Cyclin T1 and less than 5 nM at CDK7/CycH/Mat1.

For the compound `CC(C)c1cnn2c(NCc3ccccc3-n3cccn3)nc(N3CCCC4(CCCCN4)C3)nc12` (stereo not drawn) [(VIII-15), N-(2-(1H-pyrazol-1-yl)benzyl)-8-isopropyl-2-(1,8-diazaspiro[5.5]undecan-8-yl)pyrazolo[1,5-a][1,3,5]triazin-4-amine], the figures for the IC50 on CDK9/Cyclin T1 and at CDK7/CycH/Mat1 were more than 2500 nM and 10 to 25 nM, respectively.

Regarding `CC(C)c1cnn2c(NCc3ccccc3-n3cccn3)nc(N3CCC4(CCNCC4)CC3)nc12` [(VIII-26), N-(2-(1H-pyrazol-1-yl)benzyl)-8-isopropyl-2-(3,9-diazaspiro[5.5]undecan-3-yl)pyrazolo[1,5-a][1,3,5]triazin-4-amine], the IC50 on CDK9/Cyclin T1 was more than 2500 nM; at CDK7/CycH/Mat1, 5 to 10 nM.

With `CC(C)c1cnn2c(NCc3ccccc3C#N)nc(OC3CCN(C)CC3)nc12` [(VII-55), 2-(((8-isopropyl-2-((1-methylpiperidin-4-yl)oxy)pyrazolo[1,5-a][1,3,5]triazin-4-yl)amino)methyl)benzonitrile], the IC50 at CDK9/Cyclin T1 was more than 2500 nM; at CDK7/CycH/Mat1, 10 to 25 nM.

Regarding `CC(C)c1cnn2c(NCc3ccccc3S(=O)(=O)N(C)C)nc(N3CCC4(CCCN4)CC3)nc12` [(VIII-35), 2-(((8-isopropyl-2-(1,8-diazaspiro[4.5]decan-8-yl)pyrazolo[1,5-a][1,3,5]triazin-4-yl)amino)methyl)-N,N-dimethylbenzenesulfonamide], the IC50 was more than 2500 nM at CDK9/Cyclin T1 and less than 5 nM at CDK7/CycH/Mat1.

With `CC(C)c1cnn2c(NCc3ccccc3-n3cccn3)nc(N3CCC4(CCCNC4)C3)nc12` (stereo not drawn) [(VIII-27), N-(2-(1H-pyrazol-1-yl)benzyl)-8-isopropyl-2-(2,7-diazaspiro[4.5]decan-2-yl)pyrazolo[1,5-a][1,3,5]triazin-4-amine], the IC50 at CDK9/Cyclin T1 was more than 2500 nM; at CDK7/CycH/Mat1, 5 to 10 nM.

In the case of `COc1ccccc1[C@H](C)Nc1nc(O[C@@H]2CCCNC2)nc2c(C(C)C)cnn12` [(VII-10), 8-isopropyl-N-((S)-1-(2-methoxyphenyl)ethyl)-2-((R)-piperidin-3-yloxy)pyrazolo[1,5-a][1,3,5]triazin-4-amine], the values for the IC50 at CDK9/Cyclin T1 and at CDK7/CycH/Mat1 were 500 to 2500 nM and less than 5 nM, respectively.

As for `CC(C)c1cnn2c(NCc3ccccc3N3CCC3=O)nc(O[C@@H]3CCCNC3)nc12` [(VII-40), (R)-1-(2-(((8-isopropyl-2-(piperidin-3-yloxy)pyrazolo[1,5-a][1,3,5]triazin-4-yl)amino)methyl)phenyl)azetidin-2-one], the figures for the IC50 on CDK9/Cyclin T1 and on CDK7/CycH/Mat1 were more than 2500 nM and more than 25 nM, respectively.

Regarding `CC(C)c1cnn2c(NCc3ccccc3-n3cccn3)nc(N3CCC34CNC4)nc12` [(VIII-08), N-(2-(1H-pyrazol-1-yl)benzyl)-8-isopropyl-2-(1,6-diazaspiro[3.3]heptan-1-yl)pyrazolo[1,5-a][1,3,5]triazin-4-amine], the IC50 at CDK9/Cyclin T1 is more than 2500 nM; on CDK7/CycH/Mat1 it was 5 to 10 nM.

Consider `CC(C)c1cnn2c(NCc3ccccc3-n3cccn3)nc(N3CCCC34CCNC4)nc12` (stereo not drawn) [(VIII-13), N-(2-(1H-pyrazol-1-yl)benzyl)-8-isopropyl-2-(1,7-diazaspiro[4.4]nonan-1-yl)pyrazolo[1,5-a][1,3,5]triazin-4-amine], for which the IC50 was more than 2500 nM on CDK9/Cyclin T1 and 5 to 10 nM on CDK7/CycH/Mat1.

Take `CC(C)c1cnn2c(NCc3ccccc3N(C)C)nc(OC3CCN(C)CC3)nc12` [(VII-54), N-(2-(dimethylamino)benzyl)-8-isopropyl-2-((1-methylpiperidin-4-yl)oxy)pyrazolo[1,5-a][1,3,5]triazin-4-amine]: the values for the IC50 at CDK9/Cyclin T1 and on CDK7/CycH/Mat1 were 50 to 500 nM and 5 to 10 nM, respectively.

Turning to `CC(C)c1cnn2c(NCc3ccccc3-n3cccn3)nc(N3CCCC34CCNCC4)nc12` [(VIII-22), N-(2-(1H-pyrazol-1-yl)benzyl)-8-isopropyl-2-(1,8-diazaspiro[4.5]decan-1-yl)pyrazolo[1,5-a][1,3,5]triazin-4-amine], the results for the IC50 on CDK9/Cyclin T1 and at CDK7/CycH/Mat1 were more than 2500 nM and less than 5 nM, respectively.

As for `CC(C)c1cnn2c(NCc3ccccc3-n3cccn3)nc(N3CCC4(CCCCN4)C3)nc12` (stereo not drawn) [(VIII-06), N-(2-(1H-pyrazol-1-yl)benzyl)-8-isopropyl-2-(2,6-diazaspiro[4.5]decan-2-yl)pyrazolo[1,5-a][1,3,5]triazin-4-amine], the values for the IC50 at CDK9/Cyclin T1 and on CDK7/CycH/Mat1 were more than 2500 nM and less than 5 nM, respectively.

As for `CC(C)c1cnn2c(NCc3ccccc3N3CCOCC3)nc(OC3CCN(C)CC3)nc12` [(VII-60), 8-isopropyl-2-((1-methylpiperidin-4-yl)oxy)-N-(2-morpholinobenzyl)pyrazolo[1,5-a][1,3,5]triazin-4-amine], the figures for the IC50 on CDK9/Cyclin T1 and on CDK7/CycH/Mat1 were more than 2500 nM and more than 25 nM, respectively.

With `COc1ccccc1[C@H](C)Nc1nc(OC2CCNCC2)nc2c(C(C)C)cnn12` [(VII-15), (S)-8-isopropyl-N-(1-(2-methoxyphenyl)ethyl)-2-(piperidin-4-yloxy)pyrazolo[1,5-a][1,3,5]triazin-4-amine], the IC50 at CDK9/Cyclin T1 was more than 2500 nM; at CDK7/CycH/Mat1 it was less than 5 nM.

As for `CC(C)c1cnn2c(NCc3ccccc3-n3cccn3)nc(N3CC4(CCNC4)C3)nc12` [(VIII-02), N-(2-(1H-pyrazol-1-yl)benzyl)-8-isopropyl-2-(2,6-diazaspiro[3.4]octan-2-yl)pyrazolo[1,5-a][1,3,5]triazin-4-amine], the IC50 on CDK9/Cyclin T1 was more than 2500 nM; on CDK7/CycH/Mat1, less than 5 nM.

As for `CC(C)c1cnn2c(NCc3ccccc3-n3cccn3)nc(N3CCC34CCNC4)nc12` (stereo not drawn) [(VIII-28), N-(2-(1H-pyrazol-1-yl)benzyl)-8-isopropyl-2-(1,6-diazaspiro[3.4]octan-1-yl)pyrazolo[1,5-a][1,3,5]triazin-4-amine], the IC50 on CDK9/Cyclin T1 is more than 2500 nM; on CDK7/CycH/Mat1, less than 5 nM.

With `Cc1nccn1-c1ccccc1CNc1nc(OC2CCN(C)CC2)nc2c(C(C)C)cnn12` [(VII-75), 8-isopropyl-N-(2-(2-methyl-1H-imidazol-1-yl)benzyl)-2-((1-methylpiperidin-4-yl)oxy)pyrazolo[1,5-a][1,3,5]triazin-4-amine], the IC50 on CDK9/Cyclin T1 is more than 2500 nM; at CDK7/CycH/Mat1, less than 5 nM.

`CC(C)c1cnn2c(NCc3c(Cl)cccc3Cl)nc(OC3CCN(C)CC3)nc12` [(VII-63), N-(2,6-dichlorobenzyl)-8-isopropyl-2-((1-methylpiperidin-4-yl)oxy)pyrazolo[1,5-a][1,3,5]triazin-4-amine]: the results for the IC50 on CDK9/Cyclin T1 and at CDK7/CycH/Mat1 were more than 2500 nM and 10 to 25 nM, respectively.

Turning to `CC(C)c1cnn2c(NCc3ccccc3-c3cccnc3)nc(OC3CCN(C)CC3)nc12` [(VII-45), 8-isopropyl-2-((1-methylpiperidin-4-yl)oxy)-N-(2-(pyridin-3-yl)benzyl)pyrazolo[1,5-a][1,3,5]triazin-4-amine], the IC50 at CDK9/Cyclin T1 is more than 2500 nM; on CDK7/CycH/Mat1, less than 5 nM.

On to `COc1ccccc1[C@H](C)Nc1nc(OC2CCN(C)CC2)nc2c(C(C)C)cnn12` [(VII-67), (S)-8-isopropyl-N-(1-(2-methoxyphenyl)ethyl)-2-((1-methylpiperidin-4-yl)oxy)pyrazolo[1,5-a][1,3,5]triazin-4-amine], for which the IC50 on CDK9/Cyclin T1 is more than 2500 nM; at CDK7/CycH/Mat1, less than 5 nM.
